Measurements: the NIST ThermoML archive (doi:10.1016/j.jct.2016.09.036)
± gives the expanded uncertainty stated by the source.

Assays:
[1] = for mass density: 298.15 K, 101.33 kPa
[2] = Molar enthalpy of transition or fusion; conditions: Crystal 1; DSC

mass density ([1]; Crystal 1, Pycnometric method): 1517.1 ± 2.1 kg/m3
mass density ([1]; Crystal 1, X-ray diffraction): 1516.7 ± 7.4 kg/m3
mass density ([1]; Metastable crystal, Pycnometric method): 1355.3 ± 2.1 kg/m3
mass density ([1]; Metastable crystal, X-ray diffraction): 1362.9 ± 25 kg/m3
Triple point temperature ([1]; Crystal 1, DSC): 501.41 ± 7.8 K
Molar enthalpy of transition or fusion [2]: 11.2 ± 0.502 kcal/mol
Structure (SMILES): O=C(NC[C@H]1CN(c2ccc(N3CCOCC3=O)cc2)C(=O)O1)c1ccc(Cl)s1 [Rivaroxaban]
